Assay results: US20240132431A1, “METHOD FOR ALKYLATING ACIDIC FUNCTIONAL GROUP” (Chugai Seiyaku Kabushiki Kaisha, priority 2021, published 2024)

Target: T1, Bcl-2 protein (Recombinant Human Bcl-2 Protein) (Homo sapiens, UniProt P10415)
T1 construct: purchased Novus NBP2-34889
Test: Binding evaluation of mixture library compounds to Bcl-2 using AS-MS (affinity selection mass spectrometry)
Conditions: for ASMS ratio (%) n = 1 / ASMS ratio (%) n = 2: ASMS Ratio(%)=(A−C)/B×100; for ASMS ratio (%) n = 1: replicate n = 1; for ASMS ratio (%) n = 2: replicate n = 2
How it was run: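 Affinity selection MS: Bcl-2 20 μM + 1200-cpd mixture, […]/cpd, Tris pH 7.4 buffer w/ Tween-20, DTT; 1 h 23° C dark; P-2 spin SEC; MeCN/MeOH extraction; RP LC/MS. ASMS Ratio(%) = (A−C)/B×100.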

[1] = AS-MS, mixture of 1200 compounds, Bcl-2
[2] = AS-MS on the mixture of 1200 library compounds

T1 sequence (P10415 whole entry): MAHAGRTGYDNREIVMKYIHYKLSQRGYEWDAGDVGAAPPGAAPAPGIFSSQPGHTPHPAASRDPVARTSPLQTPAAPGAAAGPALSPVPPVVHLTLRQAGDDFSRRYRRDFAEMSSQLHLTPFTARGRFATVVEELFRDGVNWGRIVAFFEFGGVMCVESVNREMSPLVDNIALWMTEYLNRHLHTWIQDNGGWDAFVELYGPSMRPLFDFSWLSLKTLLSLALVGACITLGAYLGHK

`CCOc1cncc(-c2cc(CN3CCN(c4ccc(C(=O)NS(=O)(=O)CCC(F)(F)F)cc4)CC3)cc(C(F)(F)F)c2)c1` [B2N062-01, 4-[4-[[3-(5-Ethoxypyridin-3-yl)-5-(trifluoromethyl)phenyl]methyl]piperazin-1-yl]-N-(3,3,3-trifluoropropylsulfonyl)benzamide] was tested, and the “ASMS ratio (%)” value (n = 1) was 0.0% and the “ASMS ratio (%)” value (n = 2) was 0.0%.
`CCOc1cncc(-c2ccccc2CCC(=O)N2CCN(c3ccc(C(=O)NCC(F)(F)F)cc3)CC2)c1` [B1K034-01, 4-[4-[3-[2-(5-Ethoxypyridin-3-yl)phenyl]propanoyl]piperazin-1-yl]-N-(2,2,2-trifluoroethyl)benzamide] was tested, and the “ASMS ratio (%) n = 1” value [1] was −0.3% and the “ASMS ratio (%) n = 2” value [1] was 0.0%.
For `CCOc1cccc(-c2ccc(CN3CCN(c4ccc(C(=O)N(C)CC56CC7CC(CC(C7)C5)C6)cc4)CC3)c(OC)c2)c1` [B3A053-01, N-(1-Adamantylmethyl)-4-[4-[[4-(3-ethoxyphenyl)-2-methoxyphenyl]methyl]piperazin-1-yl]-N-methylbenzamide], the “ASMS ratio (%) n = 1” value [2] was 12.5% and the “ASMS ratio (%) n = 2” value [2] was 9.9%.
In the case of `CCOc1cccc(C#Cc2cc(C(=O)N3CCN(c4ccc(C(=O)NS(C)(=O)=O)cc4)CC3)cc(C(F)(F)F)c2)c1` [B2I041-01, 4-[4-[3-[2-(3-Ethoxyphenyl)ethynyl]-5-(trifluoromethyl)benzoyl]piperazin-1-yl]-N-methylsulfonylbenzamide], the “ASMS ratio (%)” value (n = 1) is reported as 0.0% and the “ASMS ratio (%)” value (n = 2) is reported as 0.0%.
`CCCNC(=O)c1ccc(N2CCN(Cc3ccc(-c4cccc(OCC)c4)c(C)c3)CC2)cc1` [B1M058-01] was tested, and the “ASMS ratio (%) n = 1” value [1] was −1.4% and the “ASMS ratio (%) n = 2” value [1] was −1.5%.
For `CCOc1cccc(-c2cc(OC)c(CN3CCN(c4ccc(C(=O)NS(=O)(=O)c5ccc(NCCSc6ccccc6)c([N+](=O)[O-])c5)nn4)CC3)c(OC)c2)c1` [B2Q085-01, 6-[4-[[4-(3-Ethoxyphenyl)-2,6-dimethoxyphenyl]methyl]piperazin-1-yl]-N-[3-nitro-4-(2-phenylsulfanylethylamino)phenyl]sulfonylpyridazine-3-carboxamide], the “ASMS ratio (%) n = 1” value (AS-MS, mixture library, Bcl-2) was 14.9% and the “ASMS ratio (%) n = 2” value (AS-MS, mixture library, Bcl-2) was 0.7%.
For `CCOc1cncc(-c2ccc(CN3CCN(c4ccc(C(=O)Nc5ccc(OC)cc5)nn4)CC3)cc2C)c1` [B1O074-01, 6-[4-[[4-(5-Ethoxypyridin-3-yl)-3-methylphenyl]methyl]piperazin-1-yl]-N-(4-methoxyphenyl)pyridazine-3-carboxamide], the “ASMS ratio (%) n = 1” value [2] was 3.9% and the “ASMS ratio (%) n = 2” value [2] was −0.9%.
For `CCOc1cncc(-c2cc(CN3CCN(c4ccc(C(=O)NCC(F)(F)F)nn4)CC3)cc(OCC)c2)c1` [B1K082-01, 6-[4-[[3-Ethoxy-5-(5-ethoxypyridin-3-yl)phenyl]methyl]piperazin-1-yl]-N-(2,2,2-trifluoroethyl)pyridazine-3-carboxamide], the “ASMS ratio (%) n = 1” value [1] was 0.0% and the “ASMS ratio (%) n = 2” value [1] was 0.0%.
With `CCOc1cccc(-c2ccccc2CCC(=O)N2CCN(c3ccc(C(=O)NS(=O)(=O)CC45CC6CC(CC(C6)C4)C5)cc3)CC2)c1` [B2A033-01, N-(1-Adamantylmethylsulfonyl)-4-[4-[3-[2-(3-ethoxyphenyl)phenyl]propanoyl]piperazin-1-yl]benzamide] the “ASMS ratio (%) n = 1” value (AS-MS, mixture library, Bcl-2) was 1.7% and the “ASMS ratio (%) n = 2” value (AS-MS, mixture library, Bcl-2) was −4.5%.
In the case of `CCOc1cccc(-c2cc(CN3CCN(c4ccc(C(=O)NS(=O)(=O)C(C)(C)C)cc4)CC3)cc(C(F)(F)F)c2)c1` [B2L061-01, N-tert-Butylsulfonyl-4-[4-[[3-(3-ethoxyphenyl)-5-(trifluoromethyl)phenyl]methyl]piperazin-1-yl]benzamide], the “ASMS ratio (%)” value (n = 1) is reported as 4.6% and the “ASMS ratio (%)” value (n = 2) is reported as −11.1%.
For `CCOc1cccc(-c2ccc(CN3CCN(c4ccc(C(=O)NS(C)(=O)=O)nn4)CC3)c(CC)c2)c1` [B2I075-01], the “ASMS ratio (%)” value (n = 1) was 0.0% and the “ASMS ratio (%)” value (n = 2) was 0.0%.
For “6-[4-[4-(5-Ethoxypyridin-3-yl)naphthalene-1-carbonyl]piperazin-1-yl]-N-propylpyridazine-3-carboxamide [B1M072-01]”, the “ASMS ratio (%) n = 1” value [1] was 0.0% and the “ASMS ratio (%) n = 2” value [1] was 1.9%.
`CCOc1cncc(-c2cc(CN3CCN(c4ccc(C(=O)NS(=O)(=O)c5ccc(NCCSc6ccccc6)c([N+](=O)[O-])c5)cc4)CC3)cc(OCC)c2)c1` [B2Q056-01, 4-[4-[[3-Ethoxy-5-(5-ethoxypyridin-3-yl)phenyl]methyl]piperazin-1-yl]-N-[3-nitro-4-(2-phenylsulfanylethylamino)phenyl]sulfonylbenzamide] was tested, and the “ASMS ratio (%) n = 1” value (AS-MS, mixture library, Bcl-2) was 7.3% and the “ASMS ratio (%) n = 2” value (AS-MS, mixture library, Bcl-2) was 2.8%.
With `CCOc1cccc(-c2cc(CN3CCN(c4ccc(C(=O)Nc5ccc(OC)cc5)cc4)CC3)cc(OC(C)C)c2)c1` [B1O057-01, 4-[4-[[3-(3-Ethoxyphenyl)-5-propan-2-yloxyphenyl]methyl]piperazin-1-yl]-N-(4-methoxyphenyl)benzamide] the “ASMS ratio (%) n = 1” value [2] was 4.1% and the “ASMS ratio (%) n = 2” value [2] was −2.2%.
For `CCOc1cccc(-c2ccc(C(=O)N3CCN(c4ccc(C(=O)NS(C)(=O)=O)cc4)CC3)cc2F)c1` [B2I027-01, 4-[4-[4-(3-Ethoxyphenyl)-3-fluorobenzoyl]piperazin-1-yl]-N-methylsulfonylbenzamide], the “ASMS ratio (%) n = 1” value (AS-MS, mixture library, Bcl-2) was 0.0% and the “ASMS ratio (%) n = 2” value (AS-MS, mixture library, Bcl-2) was 0.0%.
In the case of `CCOc1cncc(-c2ccc(CN3CCN(c4ccc(C(=O)Nc5ccc(OC)cc5)nn4)CC3)c(CC)c2)c1` [B1O076-01, 6-[4-[[4-(5-Ethoxypyridin-3-yl)-2-ethylphenyl]methyl]piperazin-1-yl]-N-(4-methoxyphenyl)pyridazine-3-carboxamide], the “ASMS ratio (%) n = 1” value [2] is reported as 4.4% and the “ASMS ratio (%) n = 2” value [2] is reported as 1.1%.
In the case of `CCOc1cccc(-c2ccc(C(=O)N3CCN(c4ccc(C(=O)N(C)CC56CC7CC(CC(C7)C5)C6)nn4)CC3)cc2C)c1` [B3A003-01, N-(1-Adamantylmethyl)-6-[4-[4-(3-ethoxyphenyl)-3-methylbenzoyl]piperazin-1-yl]-N-methylpyridazine-3-carboxamide], the “ASMS ratio (%) n = 1” value [2] is reported as 6.5% and the “ASMS ratio (%) n = 2” value [2] is reported as 4.9%.
`CCOc1cccc(-c2ccc(CN3CCN(c4ccc(C(=O)NS(=O)(=O)CCC(F)(F)F)cc4)CC3)c(OC)c2)c1` [B2N053-01, 4-[4-[[4-(3-Ethoxyphenyl)-2-methoxyphenyl]methyl]piperazin-1-yl]-N-(3,3,3-trifluoropropylsulfonyl)benzamide] was tested, and the “ASMS ratio (%)” value (n = 1) was 0.0% and the “ASMS ratio (%)” value (n = 2) was 1.4%.
`CCOc1cccc(-c2cc(CN3CCN(c4ccc(C(=O)NS(=O)(=O)CC56CC7CC(CC(C7)C5)C6)nn4)CC3)cc(C(F)(F)F)c2)c1` [B2A087-01, N-(1-Adamantylmethylsulfonyl)-6-[4-[[3-(3-ethoxyphenyl)-5-(trifluoromethyl)phenyl]methyl]piperazin-1-yl]pyridazine-3-carboxamide] was tested, and the “ASMS ratio (%) n = 1” value (AS-MS, mixture library, Bcl-2) was 7.2% and the “ASMS ratio (%) n = 2” value (AS-MS, mixture library, Bcl-2) was 12.7%.
For `CCOc1cncc(-c2csc(CN3CCN(c4ccc(C(=O)NS(=O)(=O)c5ccc(NCCSc6ccccc6)c([N+](=O)[O-])c5)nn4)CC3)c2)c1` [B2Q094-01, 6-[4-[[4-(5-Ethoxypyridin-3-yl)thiophen-2-yl]methyl]piperazin-1-yl]-N-[3-nitro-4-(2-phenylsulfanylethylamino)phenyl]sulfonylpyridazine-3-carboxamide], the “ASMS ratio (%) n = 1” value (AS-MS, mixture library, Bcl-2) was 7.2% and the “ASMS ratio (%) n = 2” value (AS-MS, mixture library, Bcl-2) was 2.5%.
For `CCOc1cncc(-c2csc(CN3CCN(c4ccc(C(=O)NS(=O)(=O)CC56CC7CC(CC(C7)C5)C6)cc4)CC3)c2)c1` [B2A068-01, N-(1-Adamantylmethylsulfonyl)-4-[4-[[4-(5-ethoxypyridin-3-yl)thiophen-2-yl]methyl]piperazin-1-yl]benzamide], the “ASMS ratio (%) n = 1” value (AS-MS, mixture library, Bcl-2) was 0.0% and the “ASMS ratio (%) n = 2” value (AS-MS, mixture library, Bcl-2) was 0.0%.
In the case of `CCOc1cncc(-c2cc(OC)c(CN3CCN(c4ccc(C(=O)N(C)CC56CC7CC(CC(C7)C5)C6)nn4)CC3)c(OC)c2)c1` [B3A086-01, N-(1-Adamantylmethyl)-6-[4-[[4-(5-ethoxypyridin-3-yl)-2,6-dimethoxyphenyl]methyl]piperazin-1-yl]-N-methylpyridazine-3-carboxamide], the “ASMS ratio (%) n = 1” value [2] is reported as −2.7% and the “ASMS ratio (%) n = 2” value [2] is reported as −1.9%.
`CCOc1cccc(-c2csc(C(=O)N3CCN(c4ccc(C(=O)NS(C)(=O)=O)cc4)CC3)c2)c1` [B2I023-01, 4-[4-[4-(3-Ethoxyphenyl)thiophene-2-carbonyl]piperazin-1-yl]-N-methylsulfonylbenzamide] was tested, and the “ASMS ratio (%) n = 1” value (AS-MS, mixture library, Bcl-2) was 0.0% and the “ASMS ratio (%) n = 2” value (AS-MS, mixture library, Bcl-2) was 0.0%.
For `CCOc1cccc(-c2ccc(CN3CCN(c4ccc(C(=O)NCC(F)(F)F)nn4)CC3)c3ccccc23)c1` [B1K091-01, 6-[4-[[4-(3-Ethoxyphenyl)naphthalen-1-yl]methyl]piperazin-1-yl]-N-(2,2,2-trifluoroethyl)pyridazine-3-carboxamide], the “ASMS ratio (%) n = 1” value [1] was 3.6% and the “ASMS ratio (%) n = 2” value [1] was −4.2%.
